These compounds were tested on BRD pathogens, M. haemolytica and P. multocida (assay: MIC screening panel of BRD pathogens (antibacterial / non-antibacterial)). Settings: read-out: antibacterial / non-antibacterial (MIC for the BRD pathogens).

Compound | MIC
CC[C@H]1OC(=O)[C@H](C)[C@@H](O)[C@H](C)[C@@H](O[C@@H]2O[C@H](C)C[C@H](N(C)C(=O)Nc3ccc(Cl)cc3)[C@H]2O)[C@](C)(O)C[C@@H](C)CN[C@H](C)[C@@H](O)[C@]1(C)O [Example A-19, 3-(4-chlorophenyl)-1-((2S,3R,4S,6R)-2-(((2R,3S,4R,5R,8R,10R,11R,12S,13S,14R)-2-ethyl-3,4,10,13-tetrahydroxy-3,5,8,10,12,14-hexamethyl-15-oxo-1-oxa-6-azacyclopentadecan-11-yl)oxy)-3-hydroxy-6-methyltetrahydro-2H-pyran-4-yl)-1-methylurea] | > 64 µg/mL
CC[C@H]1OC(=O)[C@H](C)[C@@H](O)[C@H](C)[C@@H](O[C@@H]2O[C@H](C)C[C@H](N(C)C(=O)Nc3cccc(F)c3)[C@H]2O)[C@](C)(O)C[C@@H](C)CN[C@H](C)[C@@H](O)[C@]1(C)O [Example A-20, 1-((2S,3R,4S,6R)-2-(((2R,3S,4R,5R,8R,10R,11R,12S,13S,14R)-2-ethyl-3,4,10,13-tetrahydroxy-3,5,8,10,12,14-hexamethyl-15-oxo-1-oxa-6-azacyclopentadecan-11-yl)oxy)-3-hydroxy-6-methyltetrahydro-2H-pyran-4-yl)-3-(3-fluorophenyl)-1-methylurea] | > 64 µg/mL
CC[C@H]1OC(=O)[C@H](C)[C@@H](O)[C@H](C)[C@@H](O[C@@H]2O[C@H](C)C[C@H](N(C)C(=O)Nc3cccc(OC)c3)[C@H]2O)[C@](C)(O)C[C@@H](C)CN[C@H](C)[C@@H](O)[C@]1(C)O [Example A-21, 1-((2S,3R,4S,6R)-2-(((2R,3S,4R,5R,8R,10R,11R,12S,13S,14R)-2-ethyl-3,4,10,13-tetrahydroxy-3,5,8,10,12,14-hexamethyl-15-oxo-1-oxa-6-azacyclopentadecan-11-yl)oxy)-3-hydroxy-6-methyltetrahydro-2H-pyran-4-yl)-3-(3-methoxyphenyl)-1-methylurea] | > 64 µg/mL
CC[C@H]1OC(=O)[C@H](C)[C@@H](O)[C@H](C)[C@@H](O[C@@H]2O[C@H](C)C[C@H](N(C)C(=O)Nc3cccc(Cl)c3)[C@H]2O)[C@](C)(O)C[C@@H](C)CN[C@H](C)[C@@H](O)[C@]1(C)O [Example A-23, 3-(3-chlorophenyl)-1-((2S,3R,4S,6R)-2-(((2R,3S,4R,5R,8R,10R,11R,12S,13S,14R)-2-ethyl-3,4,10,13-tetrahydroxy-3,5,8,10,12,14-hexamethyl-15-oxo-1-oxa-6-azacyclopentadecan-11-yl)oxy)-3-hydroxy-6-methyltetrahydro-2H-pyran-4-yl)-1-methylurea] | > 64 µg/mL
CC[C@H]1OC(=O)[C@H](C)[C@@H](O)[C@H](C)[C@@H](O[C@@H]2O[C@H](C)C[C@H](N(C)C(=O)Nc3ccc(C)cc3)[C@H]2O)[C@](C)(O)C[C@@H](C)CN[C@H](C)[C@@H](O)[C@]1(C)O [Example A-24, 1-((2S,3R,4S,6R)-2-(((2R,3S,4R,5R,8R,10R,11R,12S,13S,14R)-2-ethyl-3,4,10,13-tetrahydroxy-3,5,8,10,12,14-hexamethyl-15-oxo-1-oxa-6-azacyclopentadecan-11-yl)oxy)-3-hydroxy-6-methyltetrahydro-2H-pyran-4-yl)-1-methyl-3-(p-tolyl)urea] | > 64 µg/mL
CC[C@H]1OC(=O)[C@H](C)[C@@H](O)[C@H](C)[C@@H](O[C@@H]2O[C@H](C)C[C@H](N(C)C(=O)Nc3cccc(C)c3)[C@H]2O)[C@](C)(O)C[C@@H](C)CN[C@H](C)[C@@H](O)[C@]1(C)O [Example A-25, 1-((2S,3R,4S,6R)-2-(((2R,3S,4R,5R,8R,10R,11R,12S,13S,14R)-2-ethyl-3,4,10,13-tetrahydroxy-3,5,8,10,12,14-hexamethyl-15-oxo-1-oxa-6-azacyclopentadecan-11-yl)oxy)-3-hydroxy-6-methyltetrahydro-2H-pyran-4-yl)-1-methyl-3-(m-tolyl)urea] | > 64 µg/mL
CC[C@H]1OC(=O)[C@H](C)[C@@H](O)[C@H](C)[C@@H](O[C@@H]2O[C@H](C)C[C@H](N(C)C(=O)N(C)c3ccccc3)[C@H]2O)[C@](C)(O)C[C@@H](C)CN[C@H](C)[C@@H](O)[C@]1(C)O [Example A-26, 1-((2S,3R,4S,6R)-2-(((2R,3S,4R,5R,8R,10R,11R,12S,13S,14R)-2-ethyl-3,4,10,13-tetrahydroxy-3,5,8,10,12,14-hexamethyl-15-oxo-1-oxa-6-azacyclopentadecan-11-yl)oxy)-3-hydroxy-6-methyltetrahydro-2H-pyran-4-yl)-1,3-dimethyl-3-phenylurea] | > 64 µg/mL
CC[C@H]1OC(=O)[C@H](C)[C@@H](O[C@H]2C[C@@](C)(OC)[C@@H](O)[C@H](C)O2)[C@H](C)[C@@H](O[C@@H]2O[C@H](C)C[C@H](N(C)C(=O)NC3CCCCC3)[C@H]2O)[C@](C)(O)C[C@@H](C)CN(C)[C@H](C)[C@@H](O)[C@]1(C)O [Example B-10, 3-cyclohexyl-1-((2S,3R,4S,6R)-2-(((2R,3S,4R,5R,8R,10R,11R,12S,13S,14R)-2-ethyl-3,4,10-trihydroxy-13-(((2R,4R,5S,6S)-5-hydroxy-4-methoxy-4,6-dimethyltetrahydro-2H-pyran-2-yl)oxy)-3,5,6,8,10,12,14-heptamethyl-15-oxo-1-oxa-6-azacyclopentadecan-11-yl)oxy)-3-hydroxy-6-methyltetrahydro-2H-pyran-4-yl)-1-methylurea] | > 64 µg/mL
CC[C@H]1OC(=O)[C@H](C)[C@@H](O[C@H]2C[C@@](C)(OC)[C@@H](O)[C@H](C)O2)[C@H](C)[C@@H](O[C@@H]2O[C@H](C)C[C@H](N(C)C(=O)NC(C)(C)C)[C@H]2O)[C@](C)(O)C[C@@H](C)CN(C)[C@H](C)[C@@H](O)[C@]1(C)O [Example B-11, 3-(tert-butyl)-1-((2S,3R,4S,6R)-2-(((2R,3S,4R,5R,8R,10R,11R,12S,13S,14R)-2-ethyl-3,4,10-trihydroxy-13-(((2R,4R,5S,6S)-5-hydroxy-4-methoxy-4,6-dimethyltetrahydro-2H-pyran-2-yl)oxy)-3,5,6,8,10,12,14-heptamethyl-15-oxo-1-oxa-6-azacyclopentadecan-11-yl)oxy)-3-hydroxy-6-methyltetrahydro-2H-pyran-4-yl)-1-methylurea] | > 64 µg/mL
CC[C@H]1OC(=O)[C@H](C)[C@@H](O[C@H]2C[C@@](C)(OC)[C@@H](O)[C@H](C)O2)[C@H](C)[C@@H](O[C@@H]2O[C@H](C)C[C@H](N(C)C(=O)Nc3ccc(C#N)cc3)[C@H]2O)[C@](C)(O)C[C@@H](C)CN(C)[C@H](C)[C@@H](O)[C@]1(C)O [Example B-12, 3-(4-cyanophenyl)-1-((2S,3R,4S,6R)-2-(((2R,3S,4R,5R,8R,10R,11R,12S,13S,14R)-2-ethyl-3,4,10-trihydroxy-13-(((2R,4R,5S,6S)-5-hydroxy-4-methoxy-4,6-dimethyltetrahydro-2H-pyran-2-yl)oxy)-3,5,6,8,10,12,14-heptamethyl-15-oxo-1-oxa-6-azacyclopentadecan-11-yl)oxy)-3-hydroxy-6-methyltetrahydro-2H-pyran-4-yl)-1-methylurea] | > 64 µg/mL
CCCN1C[C@H](C)C[C@@](C)(O)[C@H](O[C@@H]2O[C@H](C)C[C@H](N(C)C(=O)N(C)c3ccc(C(F)(F)F)cc3)[C@H]2O)[C@@H](C)[C@H](O[C@H]2C[C@@](C)(OC)[C@@H](O)[C@H](C)O2)[C@@H](C)C(=O)O[C@H](CC)[C@@](C)(O)[C@H](O)[C@H]1C [Example B-14, 1-((2S,3R,4S,6R)-2-(((2R,3S,4R,5R,8R,10R,11R,12S,13S,14R)-2-ethyl-3,4,10-trihydroxy-13-(((2R,4R,5S,6S)-5-hydroxy-4-methoxy-4,6-dimethyltetrahydro-2H-pyran-2-yl)oxy)-3,5,8,10,12,14-hexamethyl-15-oxo-6-propyl-1-oxa-6-azacyclopentadecan-11-yl)oxy)-3-hydroxy-6-methyltetrahydro-2H-pyran-4-yl)-1,3-dimethyl-3-(4-(trifluoromethyl)phenyl)urea] | > 64 µg/mL
CCCN1C[C@H](C)C[C@@](C)(O)[C@H](O[C@@H]2O[C@H](C)C[C@H](N(C)C(=O)N(C)c3ccccc3)[C@H]2O)[C@@H](C)[C@H](O[C@H]2C[C@@](C)(OC)[C@@H](O)[C@H](C)O2)[C@@H](C)C(=O)O[C@H](CC)[C@@](C)(O)[C@H](O)[C@H]1C [Example B-15, 1-((2S,3R,4S,6R)-2-(((2R,3S,4R,5R,8R,10R,11R,12S,13S,14R)-2-ethyl-3,4,10-trihydroxy-13-(((2R,4R,5S,6S)-5-hydroxy-4-methoxy-4,6-dimethyltetrahydro-2H-pyran-2-yl)oxy)-3,5,8,10,12,14-hexamethyl-15-oxo-6-propyl-1-oxa-6-azacyclopentadecan-11-yl)oxy)-3-hydroxy-6-methyltetrahydro-2H-pyran-4-yl)-1,3-dimethyl-3-phenylurea] | > 64 µg/mL
CCOC[C@]1(O)[C@H](C)O[C@@H](O[C@H]2[C@H](C)[C@@H](O[C@@H]3O[C@H](C)C[C@H](N(C)C(=O)Nc4ccccc4)[C@H]3O)[C@](C)(O)C[C@@H](C)CN[C@H](C)[C@@H](O)[C@](C)(O)[C@@H](CC)OC(=O)[C@@H]2C)C[C@@]1(C)OC [Example C-1, 1-((2S,3R,4S,6R)-2-(((2R,3S,4R,5R,8R,10R,11R,12S,13S,14R)-13-(((2R,4R,5S,6S)-5-(ethoxymethyl)-5-hydroxy-4-methoxy-4,6-dimethyltetrahydro-2H-pyran-2-yl)oxy)-2-ethyl-3,4,10-trihydroxy-3,5,8,10,12,14-hexamethyl-15-oxo-1-oxa-6-azacyclopentadecan-11-yl)oxy)-3-hydroxy-6-methyltetrahydro-2H-pyran-4-yl)-1-methyl-3-phenylurea] | > 64 µg/mL
CCOC[C@]1(O)[C@H](C)O[C@@H](O[C@H]2[C@H](C)[C@@H](O[C@@H]3O[C@H](C)C[C@H](N(C)C(=O)N(C)c4ccc(C(F)(F)F)cc4)[C@H]3O)[C@](C)(O)C[C@@H](C)CN[C@H](C)[C@@H](O)[C@](C)(O)[C@@H](CC)OC(=O)[C@@H]2C)C[C@@]1(C)OC [Example C-3, 1-((2S,3R,4S,6R)-2-(((2R,3S,4R,5R,8R,10R,11R,12S,13S,14R)-13-(((2R,4R,5S,6S)-5-(ethoxymethyl)-5-hydroxy-4-methoxy-4,6-dimethyltetrahydro-2H-pyran-2-yl)oxy)-2-ethyl-3,4,10-trihydroxy-3,5,8,10,12,14-hexamethyl-15-oxo-1-oxa-6-azacyclopentadecan-11-yl)oxy)-3-hydroxy-6-methyltetrahydro-2H-pyran-4-yl)-1,3-dimethyl-3-(4-(trifluoromethyl)phenyl)urea] | > 64 µg/mL
